Assay results as given in patent US9375438B2, “Inhibitors of NCCa-ATP channels for therapy” (University of Maryland, Baltimore, priority 2007, dated 2016).
pEC50, pIC50: −log10 of the molar value.

What was measured:
[1] = test system: rats with hemi-cervical spinal cord contusion (SCI); assay: SCI model: extravasated blood in cord (tissue blood); type: in vivo, rat; settings: for PHN: following SCI (summary)
Procedure: (§1) SCI injury model. This study was performed in accordance with the guidelines of the Institutional Animal Care and Use Committee. Adult female Long-Evans rats (275-350 gm) were anesthetized (Ketamine, 60 mg/kg plus Xylazine, 7.5 mg/kg, i.p.). The dura at C4-5 was exposed via a left hemilaminectomy. A hemi-cervical spinal cord contusion was created using a blunt force impactor (1.3-mm impactor head driven by a 10 gm weight dropped vertically 25 mm) (Soblosky et al., 2001; Gensel et al., 2006). After SCI, animals were given 10 ml of glucose-free normal saline s.q. Rectal temperature was maintained at ˜37° C. using a servo-controlled warming blanket.
(§2) For in vivo gene suppression of SUR1, we used oligodeoxynucleotides that were phosphorothioated at 4 distal bonds to protect against endogenous nucleases (35).
Tissue blood. Rats were sacrificed at various times after SCI (n=5-11 rats/group), were perfused with heparinized saline to remove intravascular blood, and 5-mm segments of cord encompassing the lesion were homogenized and processed as described (Choudhri et al., 1997).

[2] = test system: rats with hemi-cervical spinal cord contusion (SCI); assay: SCI model: neurobehavioral assessment (inclined plane, paw placement, rearing); type: in vivo, rat
Procedure: as §1, §2
Neurobehavioral Assessment. All measurements were performed by blinded evaluators. Performance on the inclined plane was evaluated as described (Rivlin and Tator, 1977). To assess paw placement and vertical exploration (rearing) (Nikulina et al., 2004) animals were videotaped while in a translucent cylinder (19×20 cm). Rearing was quantified as the number of seconds spent with both front paws elevated above shoulder-height during a 3-min period of observation.

SUR1 [3] = assay: SUR1 knock-down in gliotic capsule (gelatin sponge implant), Western blot and astrocyte patch clamp; type: in vivo, rat; settings: vs Scr-ODN
Procedure: To validate the antisense strategy, it was first implemented in the model that was originally used for the discovery of the NCCa-ATP channel, wherein a gelatin sponge is implanted into the parietal lobe to stimulate formation of a gliotic capsule (Chen and Simard, 2001). Here, animals were also fitted with mini-osmotic pumps that delivered oligodeoxynucleotides (ODN), either antisense (AS) or scrambled (Scr), continuously for 7 d into the injury site.
SUR1 knock-down in astrocytes was performed in triplicates by implanting rats with gelatin sponges in the parietal lobe to induce formation of a gliotic capsule containing reactive astrocytes that express the SUR1-regulated NCCa-ATP channel (Chen and Simard, 2001; Chen et al., 2003). At the same time, they were implanted with mini-osmotic pumps (Alzet, model 2002; 14-day pump) placed in the dorsal thoracolumbar region that contained ODN (711 μg/ml delivered @ 0.5 μl/h, yielding 1500 picomoles/day), with the delivery catheter placed directly into the site of the gelatin sponge implant in the brain. Animals were infused with Src-ODN or AS-ODN, as above but not phosphorothioated. After 10-14 days, the gelatin sponge plus encapsulating gliotic tissues were harvested and processed either for Western immunoblots or to obtain fresh reactive astrocytes for patch clamp electrophysiology. […]

SUR1 [4] = assay: SCI model: SUR1 immunolabeling of cord after i.v. ODN; type: in vivo, rat
Procedure: as §1, with “blanket. Blood gases and serum glucose 10-15 min post-SCI were: pO2, 95±6 mm Hg; pCO2, 46±3 mm Hg; pH, 7.33±0.01; glucose 258±17 mg/dl in controls and pO2, 96±7 mm Hg; pCO2, 45±2 mm Hg; pH, 7.37±0.01; glucose 242±14 mg/dl in glibenclamide-treated animals.” for “blanket.”
For in vivo gene suppression of SUR1, we used oligodeoxynucleotides that were phosphorothioated at 4 distal bonds to protect against endogenous nucleases (35). Within a few min of SCI, mini-osmotic pumps (Alzet 2002, 0.5 μl/h; Durect Corporation) with jugular vein catheters were implanted that delivered either scrambled sequence ODN (Scr-ODN) (5′-[…]-3′; SEQ ID NO:1) or antisense ODN (AS-ODN) (5′-[…]-3′; SEQ ID NO:2) (Yokoshiki et al., 1999) in PBS at a rate of 1 mg/rat/24 h.
(§3) Immunohistochemistry. Cryosections were immunolabeled (Chen et al., 2003; Simard et al., 2006) using primary antibodies directed against SUR1 (Santa Cruz, C-16; 1:200; 1 h at RT, 48 h at 4° C.), SUR2 (Santa Cruz, H-80; 1:200; 1 h at RT, 48 h at 4° C.), GFAP (Sigma, C-9205; 1:500), and vimentin (Sigma, monoclonal CY3 conjugated; 1:100). Quantitative immunofluorescence was performed as described (Gerzanich et al., 2003).

[5] = test system: rats with hemi-cervical spinal cord contusion (SCI); assay: SCI model: lesion size; type: in vivo, rat; settings: following SCI; compared to controls (summary)
Procedure: as §1, with “blanket. Blood gases and serum glucose 10-15 min post-SCI were: pO2, 95±6 mm Hg; pCO2, 46±3 mm Hg; pH, 7.33±0.01; glucose 258±17 mg/dl in controls and pO2, 96±7 mm Hg; pCO2, 45±2 mm Hg; pH, 7.37±0.01; glucose 242±14 mg/dl in glibenclamide-treated animals.” for “blanket.”
Drug delivery. […] During the course of the project, slightly different formulations of drug were used, with the best results obtained using stock solutions made by placing 50 mg (or 25 mg) of drug into 10 ml DMSO, and infusion solutions made by placing 400 μl (or 800 μl) stock into 4.6 ml (or 4.2 ml) unbuffered saline (0.9% NaCl) and adjusting the pH to ˜8.5 using 0.1 N NaOH.
Lesion size. At 7 d post-SCI, cords were paraffin sectioned and stained with H&E. Lesion volumes were calculated from lesion areas measured on serial sections every 250 μm.
as §3

[6] = target: SUR1-regulated NCCa-ATP channels (Rattus norvegicus, UniProt Q09429); settings: read-out: EC50, block of NCCa-ATP channel; cited from earlier work
[7] = target: T1, SUR1-regulated NCCa-ATP channel in human aortic endothelial cells (Homo sapiens, UniProt Q09428); assay: Perforated-patch whole-cell recording of endothelial cells, channel activation by diazoxide; type: cell-based
T1 construct: host or cells: human aortic endothelial cells cultured under hypoxia
T1 sequence (Q09428 whole entry): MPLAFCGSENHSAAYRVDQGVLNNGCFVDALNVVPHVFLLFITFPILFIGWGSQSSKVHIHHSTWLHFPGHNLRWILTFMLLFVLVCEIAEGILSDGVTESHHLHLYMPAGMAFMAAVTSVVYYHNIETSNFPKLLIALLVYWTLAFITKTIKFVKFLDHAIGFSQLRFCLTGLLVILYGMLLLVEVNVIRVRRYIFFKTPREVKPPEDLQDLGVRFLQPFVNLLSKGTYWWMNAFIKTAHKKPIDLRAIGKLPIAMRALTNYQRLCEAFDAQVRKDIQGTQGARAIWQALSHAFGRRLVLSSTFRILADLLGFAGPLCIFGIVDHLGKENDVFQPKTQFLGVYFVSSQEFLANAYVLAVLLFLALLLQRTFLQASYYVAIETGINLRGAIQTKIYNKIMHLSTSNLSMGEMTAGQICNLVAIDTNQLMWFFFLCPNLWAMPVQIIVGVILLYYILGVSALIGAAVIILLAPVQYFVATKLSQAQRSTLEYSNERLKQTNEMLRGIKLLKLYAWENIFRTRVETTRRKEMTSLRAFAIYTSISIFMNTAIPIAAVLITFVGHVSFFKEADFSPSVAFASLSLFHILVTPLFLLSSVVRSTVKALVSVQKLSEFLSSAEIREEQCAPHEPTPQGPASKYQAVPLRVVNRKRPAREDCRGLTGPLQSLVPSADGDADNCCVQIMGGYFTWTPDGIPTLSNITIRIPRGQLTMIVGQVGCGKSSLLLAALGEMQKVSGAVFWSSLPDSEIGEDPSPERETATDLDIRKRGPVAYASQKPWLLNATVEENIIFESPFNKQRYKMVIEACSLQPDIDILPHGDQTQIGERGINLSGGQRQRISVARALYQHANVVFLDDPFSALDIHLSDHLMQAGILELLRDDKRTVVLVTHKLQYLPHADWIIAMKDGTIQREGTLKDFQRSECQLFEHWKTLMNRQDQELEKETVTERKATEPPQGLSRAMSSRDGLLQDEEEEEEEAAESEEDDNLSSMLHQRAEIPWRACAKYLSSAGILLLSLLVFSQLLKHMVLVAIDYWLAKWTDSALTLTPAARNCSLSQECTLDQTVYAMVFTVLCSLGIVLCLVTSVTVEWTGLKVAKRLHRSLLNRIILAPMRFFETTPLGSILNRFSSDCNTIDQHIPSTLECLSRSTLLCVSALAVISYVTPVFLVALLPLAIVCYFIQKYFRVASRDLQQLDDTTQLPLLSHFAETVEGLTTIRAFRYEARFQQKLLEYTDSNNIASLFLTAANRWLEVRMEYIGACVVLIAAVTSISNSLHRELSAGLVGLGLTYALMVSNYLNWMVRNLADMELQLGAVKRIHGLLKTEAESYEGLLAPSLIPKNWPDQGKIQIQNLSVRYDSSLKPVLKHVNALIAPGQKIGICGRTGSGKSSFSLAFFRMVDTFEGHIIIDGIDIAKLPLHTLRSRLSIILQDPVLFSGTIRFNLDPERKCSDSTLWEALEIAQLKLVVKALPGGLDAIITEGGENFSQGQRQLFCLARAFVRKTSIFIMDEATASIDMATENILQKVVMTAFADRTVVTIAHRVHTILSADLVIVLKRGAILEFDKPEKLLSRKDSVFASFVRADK
T1 sequence (Q8TD43 whole entry partner): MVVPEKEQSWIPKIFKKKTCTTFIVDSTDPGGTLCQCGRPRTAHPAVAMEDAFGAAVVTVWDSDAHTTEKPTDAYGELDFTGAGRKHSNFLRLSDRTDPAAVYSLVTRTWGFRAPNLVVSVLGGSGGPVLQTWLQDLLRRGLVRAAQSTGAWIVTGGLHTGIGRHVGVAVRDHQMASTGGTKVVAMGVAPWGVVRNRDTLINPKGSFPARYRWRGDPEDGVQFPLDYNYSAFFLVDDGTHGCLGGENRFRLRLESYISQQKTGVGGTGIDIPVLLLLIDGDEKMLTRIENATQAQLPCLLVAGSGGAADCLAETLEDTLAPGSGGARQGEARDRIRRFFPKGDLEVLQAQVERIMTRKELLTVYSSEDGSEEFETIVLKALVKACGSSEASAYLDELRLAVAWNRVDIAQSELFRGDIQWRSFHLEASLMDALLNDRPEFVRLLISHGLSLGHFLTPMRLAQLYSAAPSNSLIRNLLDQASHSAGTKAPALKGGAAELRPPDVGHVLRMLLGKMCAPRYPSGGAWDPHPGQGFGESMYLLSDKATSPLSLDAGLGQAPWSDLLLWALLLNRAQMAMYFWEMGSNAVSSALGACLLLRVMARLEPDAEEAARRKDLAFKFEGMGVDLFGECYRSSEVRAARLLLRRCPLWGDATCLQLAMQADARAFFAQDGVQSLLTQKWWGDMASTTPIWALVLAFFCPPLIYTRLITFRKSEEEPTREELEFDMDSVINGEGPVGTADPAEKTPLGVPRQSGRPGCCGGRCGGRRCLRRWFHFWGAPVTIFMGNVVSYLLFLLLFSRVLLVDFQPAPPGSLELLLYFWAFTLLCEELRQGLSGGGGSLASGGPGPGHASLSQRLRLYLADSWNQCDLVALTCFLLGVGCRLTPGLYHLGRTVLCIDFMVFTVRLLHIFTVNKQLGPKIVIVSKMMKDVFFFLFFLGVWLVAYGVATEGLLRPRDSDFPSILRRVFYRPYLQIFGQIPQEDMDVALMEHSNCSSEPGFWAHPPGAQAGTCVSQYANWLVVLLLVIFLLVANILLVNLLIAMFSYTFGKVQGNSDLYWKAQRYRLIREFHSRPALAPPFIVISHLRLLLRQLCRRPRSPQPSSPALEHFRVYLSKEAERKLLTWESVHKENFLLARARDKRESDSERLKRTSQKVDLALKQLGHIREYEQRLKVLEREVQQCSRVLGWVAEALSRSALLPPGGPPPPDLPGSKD
Procedure: Patch clamp of endothelial cells was performed using a nystatin-perforated patch technique, to maintain the metabolic integrity of the cells. The identity of the activated channel can be assessed by measurement of the “reversal potential”, the potential at which an ion channel current reverses from inward to outward. With physiologically relevant concentrations of ions intracellularly and extracellularly (high potassium inside, high sodium outside), the reversal potential can unambiguously distinguish between a K^+ channel current such as KATP, which reverses negative to −50 mV and a non-selective cation channel current such as NCCa-ATP, which reverses near 0 mV.
Cell culture. Endothelial cell cultures from human brain microvessels, human aorta (ScienCell Research Laboratories), and murine brain microvessels (bEnd.3; ATCC), were grown at low density using media and supplements recommended by suppliers.

[8] = target: native and recombinant β-cell KATP channels (Homo sapiens, UniProt Q09428); settings: read-out: IC50, block of native and recombinant β-cell KATP channels; cited from earlier work
Chain of native and recombinant β-cell KATP channels (Q09428 whole entry): as the sequence (Q09428 whole entry) above
Chain of native and recombinant β-cell KATP channels (Q14654 whole entry partner): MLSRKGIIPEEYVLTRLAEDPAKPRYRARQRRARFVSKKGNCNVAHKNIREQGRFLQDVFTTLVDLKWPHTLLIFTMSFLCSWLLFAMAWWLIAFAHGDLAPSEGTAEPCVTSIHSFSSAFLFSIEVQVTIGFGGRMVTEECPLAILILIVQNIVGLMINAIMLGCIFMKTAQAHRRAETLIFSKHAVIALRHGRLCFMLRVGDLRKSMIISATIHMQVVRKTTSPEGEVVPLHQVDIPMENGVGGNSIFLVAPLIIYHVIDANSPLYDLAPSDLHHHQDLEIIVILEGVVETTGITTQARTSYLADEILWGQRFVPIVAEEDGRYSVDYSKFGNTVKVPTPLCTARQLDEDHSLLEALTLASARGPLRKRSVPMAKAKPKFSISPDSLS

[9] = 1 d post-SCI, ODN i.v., vs Scr-ODN
[10] = repaglinide 200 ng/h s.q., n=3-8/group

5′-GGCCGAGTGGTTCTCGGT-3′ (DNA, backbone and methylation of C not given here; phosphorothioate at 4 distal bonds) [AS-ODN]
blood in cord homogenates (effect) [1, 9]: reduced
PHN [1]: significantly reduced
performance in vertical exploration [2, 9]: significantly better performance
performance on the inclined plane [2, 9]: significantly better performance
SUR1 protein in gliotic capsule (Western blot) (SUR1 [3]; ODN infused into injury site): significant reduction
astrocyte depolarization on ATP depletion by Na azide (SUR1 [3]; astrocytes from gliotic capsule): depolarized only slightly or not at all
SUR1 immunolabeling of cord (SUR1 [4]; 6 h post-SCI, ODN i.v. 1 mg/rat/24 h, vs controls): significantly less immunolabeling
normal expression of SUR1 in dorsal horn cells (SUR1 [4]; post-SCI, ODN i.v.): did not affect
necrotic void beneath impact site (SUR1 [4]; post-SCI, ODN i.v., vs Scr-ODN): no necrotic void was evident
reduction in lesion volume [5]: 3 fold

Nc1ncnc2c1ncn2[C@@H]1O[C@H](COP(=O)(O)OP(=O)(O)OP(=O)(O)O)[C@@H](O)[C@H]1O [ATP]
pEC50 [6]: 6.10

CC1=NS(=O)(=O)c2cc(Cl)ccc2N1 [diazoxide]
current activated by diazoxide ([7]; endothelial cells cultured under hypoxic conditions): activated an ohmic current that reversed near 0 mV
current activated by diazoxide ([7]; endothelial cells cultured under normoxic conditions): either had no effect or, in half of the cells, activated an outwardly rectifying current

CCOc1cc(CC(=O)N[C@@H](CC(C)C)c2ccccc2N2CCCCC2)ccc1C(=O)O [repaglinide]
blood in cord homogenates ([1]; 1 d post-SCI, repaglinide 200 ng/h s.q., 5-8 rats/group): 1.2 ± 0.1 µL
PHN [1]: significantly reduced
pIC50 [8]: 8.15 to 9.05
vertical exploration ([2]; repaglinide 200 ng/h s.q., 5-6 rats/group): 27 ± 6 s
inclined plane, head down [2, 10]: 47±3 degrees
inclined plane, head up [2, 10]: 62±2 degrees
reduction in lesion volume [5]: 3 fold
